The structures appear in SMILES notation. Structures can show the parent of a compound that is named as a salt.

The target in this test is T1, recombinant human baculovirus-expressed GST-tagged FASN (Homo sapiens, UniProt P49327).
T1 construct: GST
T1 sequence (P49327 whole entry): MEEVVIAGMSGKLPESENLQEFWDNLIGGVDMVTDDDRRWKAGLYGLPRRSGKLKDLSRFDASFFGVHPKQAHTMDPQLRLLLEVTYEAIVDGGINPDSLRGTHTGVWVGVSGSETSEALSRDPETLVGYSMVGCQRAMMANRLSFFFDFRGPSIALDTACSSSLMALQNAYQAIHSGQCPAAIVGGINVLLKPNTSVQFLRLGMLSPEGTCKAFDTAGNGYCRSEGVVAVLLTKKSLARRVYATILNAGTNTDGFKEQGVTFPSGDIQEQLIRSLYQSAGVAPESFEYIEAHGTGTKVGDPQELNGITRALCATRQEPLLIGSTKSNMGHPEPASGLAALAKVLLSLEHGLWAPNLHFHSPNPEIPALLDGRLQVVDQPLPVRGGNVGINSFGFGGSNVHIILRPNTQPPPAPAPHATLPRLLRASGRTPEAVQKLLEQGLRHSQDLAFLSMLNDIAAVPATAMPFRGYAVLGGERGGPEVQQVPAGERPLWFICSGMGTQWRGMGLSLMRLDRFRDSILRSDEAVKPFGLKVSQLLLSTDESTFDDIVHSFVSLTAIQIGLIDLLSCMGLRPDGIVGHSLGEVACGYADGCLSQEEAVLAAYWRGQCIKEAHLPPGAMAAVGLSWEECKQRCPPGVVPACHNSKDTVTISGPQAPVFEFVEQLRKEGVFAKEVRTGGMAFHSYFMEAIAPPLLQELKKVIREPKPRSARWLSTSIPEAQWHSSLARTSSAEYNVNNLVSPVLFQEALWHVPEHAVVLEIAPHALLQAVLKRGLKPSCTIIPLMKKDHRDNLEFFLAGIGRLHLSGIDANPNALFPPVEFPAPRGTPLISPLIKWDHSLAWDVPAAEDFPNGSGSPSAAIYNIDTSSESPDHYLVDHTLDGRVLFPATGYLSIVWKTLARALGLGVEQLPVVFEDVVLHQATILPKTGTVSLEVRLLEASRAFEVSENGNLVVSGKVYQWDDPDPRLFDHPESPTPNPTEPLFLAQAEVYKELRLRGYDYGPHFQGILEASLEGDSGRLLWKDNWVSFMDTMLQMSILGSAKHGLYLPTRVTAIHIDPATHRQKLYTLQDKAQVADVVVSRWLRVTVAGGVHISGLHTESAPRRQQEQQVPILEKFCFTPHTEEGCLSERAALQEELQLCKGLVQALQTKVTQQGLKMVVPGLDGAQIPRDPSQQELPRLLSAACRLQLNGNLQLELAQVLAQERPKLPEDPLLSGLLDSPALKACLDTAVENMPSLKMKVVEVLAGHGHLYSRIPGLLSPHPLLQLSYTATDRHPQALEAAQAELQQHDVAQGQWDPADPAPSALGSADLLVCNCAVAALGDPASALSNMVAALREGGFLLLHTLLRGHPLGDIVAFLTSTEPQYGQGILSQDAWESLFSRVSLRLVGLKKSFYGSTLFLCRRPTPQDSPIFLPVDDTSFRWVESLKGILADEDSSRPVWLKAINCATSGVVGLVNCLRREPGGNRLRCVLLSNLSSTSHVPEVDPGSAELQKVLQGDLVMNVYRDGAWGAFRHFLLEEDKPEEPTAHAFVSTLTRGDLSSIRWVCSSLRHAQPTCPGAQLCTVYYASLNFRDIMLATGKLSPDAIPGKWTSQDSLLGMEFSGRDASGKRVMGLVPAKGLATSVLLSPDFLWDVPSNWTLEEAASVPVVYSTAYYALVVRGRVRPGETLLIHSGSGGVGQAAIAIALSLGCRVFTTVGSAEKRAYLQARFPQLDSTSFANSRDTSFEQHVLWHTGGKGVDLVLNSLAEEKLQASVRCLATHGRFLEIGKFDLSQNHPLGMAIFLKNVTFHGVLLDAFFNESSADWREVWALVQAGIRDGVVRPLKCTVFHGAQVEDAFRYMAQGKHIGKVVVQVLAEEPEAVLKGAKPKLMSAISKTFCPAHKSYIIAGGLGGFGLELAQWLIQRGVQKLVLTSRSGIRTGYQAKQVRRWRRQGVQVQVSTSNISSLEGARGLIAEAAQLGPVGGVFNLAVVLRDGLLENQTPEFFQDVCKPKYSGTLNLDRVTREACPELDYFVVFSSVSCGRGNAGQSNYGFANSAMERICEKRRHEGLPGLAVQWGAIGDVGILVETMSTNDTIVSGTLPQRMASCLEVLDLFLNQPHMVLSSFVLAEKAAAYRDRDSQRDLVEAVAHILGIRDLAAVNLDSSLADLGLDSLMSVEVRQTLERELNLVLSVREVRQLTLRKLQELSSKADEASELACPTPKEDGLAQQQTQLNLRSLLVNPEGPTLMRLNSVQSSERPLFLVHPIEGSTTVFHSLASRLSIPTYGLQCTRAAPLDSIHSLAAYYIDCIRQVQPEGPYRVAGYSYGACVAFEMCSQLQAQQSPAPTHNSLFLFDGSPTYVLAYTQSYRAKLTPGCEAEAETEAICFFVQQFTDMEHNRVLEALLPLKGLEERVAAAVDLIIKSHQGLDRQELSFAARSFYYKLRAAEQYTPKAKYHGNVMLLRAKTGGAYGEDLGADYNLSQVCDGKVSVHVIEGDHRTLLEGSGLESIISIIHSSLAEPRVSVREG
As to the kind of experiment: FASN enzyme activity assay, fluorescence-based detection of CoA with CPM. The test is classed as biochemical. Conditions: 5 nM FASN, 150 μM NADPH, 10 μM acetyl-CoA, 25 μM malonyl-CoA, 90 minutes incubation; read-out: IC50 data for Additional Compounds of Formulae I-V(a): Activity. The procedure, abridged: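 CoA product reacted with thiol-reactive CPM (diluted to 50 μM in 70% ethanol), read at 390/530 nm after 30 min. Preceding reaction: 90 min, 5 nM recombinant GST-FASN, 150 μM NADPH, 10 μM acetyl-CoA, 25 μM malonyl-CoA, pH 7.5 HEPES, 0.5% DMSO. IC50s fitted by nonlinear sigmoidal regression.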
Take `Cc1c(-c2ccc(OC3CCN(C(=O)NC4CCOCC4)CC3)cc2)ccc2cccnc12` [Example 549, 4-[4-(8-Methyl-7-quinolyl)phenoxy]-N-tetrahydropyran-4-yl-piperidine-1-carboxamide, HCl]: the IC50 lay within 1000 to 10000 nM. As to `Cc1c(-c2ccc(OC3CCN(C(=O)OCC(C)C)CC3)cc2)ccc2cccnc12` [Example 550, Isobutyl 4-[4-(8-methyl-7-quinolyl)phenoxy]piperidine-1-carboxylate, HCl], the concentration for half-maximal inhibition (IC50) is 1000 to 10000 nM. In the case of `C=CCOC(=O)N1CCC(Oc2ccc(-c3ccc4cccnc4c3C)cc2)CC1` [Example 551, Allyl 4-[4-(8-methyl-7-quinolyl)phenoxy]piperidine-1-carboxylate, HCl] it was 1000 to 10000 nM; in that of `Cc1c(-c2ccc(OC3CCN(C(=O)NC4CCC4)CC3)cc2)ccc2cccnc12` [Example 552, N-Cyclobutyl-4-[4-(8-methyl-7-quinolyl)phenoxy]piperidine-1-carboxamide HCl], 1000 to 10000 nM. Next, `Cc1c(-c2ccc(OC3CCN(C(=O)OCC4CC4)CC3)cc2)ccc2cccnc12` [Example 553, Cyclopropylmethyl 4-[4-(8-methyl-7-quinolyl)phenoxy]piperidine-1-carboxylate HCl]: 1000 to 10000 nM; `Cc1c(-c2ccc(OC3CCN(C(=O)NO)CC3)cc2)ccc2cccnc12` [Example 554, 4-[4-(8-Methyl-7-quinolyl)phenoxy]piperidine-1-carbohydroxamic acid, HCl]: 1000 to 10000 nM; `COCCOC(=O)N1CCC(Oc2ccc(-c3ccc4cccnc4c3C)cc2)CC1` [Example 555, 2-Methoxyethyl 4-[4-(8-methyl-7-quinolyl)phenoxy]piperidine-1-carboxylate, HCl]: 1000 to 10000 nM. Regarding `Cc1c(-c2ccc(OC3CCN(C(=O)OC4CCOCC4)CC3)cc2)ccc2cccnc12` [Example 556, Tetrahydropyran-4-yl 4-[4-(8-methyl-7-quinolyl)phenoxy]piperidine-1-carboxylate], the IC50 was 1000 to 10000 nM. With `Cc1c(-c2ccc(OC3CCN(C(=O)OC4CCCOC4)CC3)cc2)ccc2cccnc12` (stereo not shown) [Example 557, Tetrahydropyran-3-yl 4-[4-(8-methyl-7-quinolyl)phenoxy]piperidine-1-carboxylate], the half-maximal inhibitory concentration (IC50) lay within 1000 to 10000 nM.

As for `Cc1c(-c2ccc(OC3CCN(C(=O)N4CCCCO4)CC3)cc2)ccc2cccnc12` [Example 558, [4-[4-(8-Methyl-7-quinolyl)phenoxy]-1-piperidyl]-(oxazinan-2-yl)methanone], the IC50 was 1000 to 10000 nM.

As to `Cc1c(-c2ccc(OC3CCN(C(=O)OC4CCOC4)CC3)cc2)ccc2cccnc12` (stereo not shown) [Example 559, Tetrahydrofuran-3-yl 4-[4-(8-methyl-7-quinolyl)phenoxy]piperidine-1-carboxylate], the IC50 is 1 to 99 nM. `Cc1c(-c2ccc(OC3CCN(C(=O)NCC4CCC4)CC3)cc2)ccc2cccnc12` [Example 560, N-(Cyclobutylmethyl)-4-[4-(8-methyl-7-quinolyl)phenoxy]piperidine-1-carboxamide]: the IC50 was in the range of 100 to 999 nM. Turning to `Cc1c(-c2ccc(OC3CCN(C(=O)OC4CCC4)CC3)cc2)ccc2cccnc12` [Example 561, Cyclobutyl 4-[4-(8-methyl-7-quinolyl)phenoxy]piperidine-1-carboxylate], the half-maximal inhibitory concentration (IC50) was 1000 to 10000 nM. In the case of `Cc1c(-c2ccc(OC3CCN(C(=O)N4CCCCCC4)CC3)cc2)ccc2cccnc12` [Example 562, Azepan-1-yl-[4-[4-(8-methyl-7-quinolyl)phenoxy]-1-piperidyl]methanone], the IC50 lay within 1000 to 10000 nM.

With `CCONC(=O)N1CCC(Oc2ccc(-c3ccc4nccn4c3Cl)cc2)CC1` [Example 573, 4-[4-(5-Chloroimidazo[1,2-a]pyridin-6-yl)phenoxy]-N-ethoxy-piperidine-1-carboxamide], the 50% inhibitory concentration (IC50) fell in the range of 1000 to 10000 nM. Consider `CCCONC(=O)N1CCC(Oc2ccc(-c3ccc4nccn4c3Cl)cc2)CC1` [Example 576, 4-[4-(5-Chloroimidazo[1,2-a]pyridin-6-yl)phenoxy]-N-propoxy-piperidine-1-carboxamide], for which the IC50 was 1000 to 10000 nM. Take `CCNC(=O)N1CCC(Oc2ccc(-c3ccc4nccn4c3C)cc2)CC1` [Example 592, N-Ethyl-4-[4-(5-methylimidazo[1,2-a]pyridin-6-yl)phenoxy]piperidine-1-carboxamide]: the IC50 is 1 to 99 nM. In the case of `Cc1c(-c2ccc(OC3CCN(C(=O)NCC(C)C)CC3)cc2)ccc2nccn12` [Example 593, N-Isobutyl-4-[4-(5-methylimidazo[1,2-a]pyridin-6-yl)phenoxy]piperidine-1-carboxamide] it was 1000 to 10000 nM. Next, `CCCNC(=O)N1CCC(Oc2ccc(-c3ccc4nccn4c3C)cc2)CC1` [Example 594, 4-[4-(5-Methylimidazo[1,2-a]pyridin-6-yl)phenoxy]-N-propyl-piperidine-1-carboxamide]: 1 to 99 nM; `Cc1c(-c2ccc(OC3CCN(C(=O)NCC4CC4)CC3)cc2)ccc2nccn12` [Example 595, N-(Cyclopropylmethyl)-4-[4-(5-methylimidazo[1,2-a]pyridin-6-yl)-phenoxy]piperidine-1-carboxamide]: 100 to 999 nM; `Cc1c(-c2ccc(OC3CCN(C(=O)Nc4cccnc4)CC3)cc2)ccc2nccn12` [Example 596, 4-[4-(5-Methylimidazo[1,2-a]pyridin-6-yl)phenoxy]-N-(3-pyridyl)piperidine-1-carboxamide]: 1 to 99 nM. In the case of `COCCNC(=O)N1CCC(Oc2ccc(-c3ccc4nccn4c3C)cc2)CC1` [Example 597, N-(2-Methoxyethyl)-4-[4-(5-methylimidazo[1,2-a]pyridin-6-yl)phenoxy]-piperidine-1-carboxamide] it was 1000 to 10000 nM; in that of `Cc1c(-c2ccc(OC3CCN(C(=O)N4CCN(C)CC4)CC3)cc2)ccc2nccn12` [Example 598, [4-[4-(5-Methylimidazo[1,2-a]pyridin-6-yl)phenoxy]-1-piperidyl]-(4-methylpiperazin-1-yl)methanone], 100 to 999 nM.

For `Cc1c(-c2ccc(OC3CCN(C(=O)N(C)C)CC3)cc2)ccc2nccn12` [Example 599, N,N-Dimethyl-4-[4-(5-methylimidazo[1,2-a]pyridin-6-yl)phenoxy]piperidine-1-carboxamide], the IC50 lay within 1000 to 10000 nM.

As for `Cc1c(-c2ccc(OC3CCN(C(=O)NOC(C)C)CC3)cc2)ccc2nccn12` [Example 600, N-Isopropoxy-4-[4-(5-methylimidazo[1,2-a]pyridin-6-yl)phenoxy]piperidine-1-carboxamide], the IC50 lay in the range of 100 to 999 nM. As to `Cc1c(-c2ccc(OC3CCN(C(=O)NOCC(C)C)CC3)cc2)ccc2nccn12` [Example 601, N-Isobutoxy-4-[4-(5-methylimidazo[1,2-a]pyridin-6-yl)phenoxy]piperidine-1-carboxamide], the half-inhibitory concentration (IC50) lay within 1 to 99 nM. Next, `Cc1c(-c2ccc(OC3CCN(C(=O)OCC(C)C)CC3)cc2)ccc2nccn12` [Example 602, Isobutyl 4-[4-(5-methylimidazo[1,2-a]pyridin-6-yl)phenoxy]piperidine-1-carboxylate]: 1000 to 10000 nM.

Take `Cc1c(-c2ccc(OC3CCN(C(=O)NC(C)C)CC3)cc2)ccc2nccn12` [Example 603, N-Isopropyl-4-[4-(5-methylimidazo[1,2-a]pyridin-6-yl)phenoxy]piperidine-1-carboxamide]: the half-inhibitory concentration (IC50) fell in the range of 1000 to 10000 nM. Take `Cc1c(-c2ccc(OC3CCN(C(=O)Nc4cnn(C)c4)CC3)cc2)ccc2nccn12` [Example 604, 4-[4-(5-Methylimidazo[1,2-a]pyridin-6-yl)phenoxy]-N-(1-methylpyrazol-4-yl)piperidine-1-carboxamide]: the IC50 was 1000 to 10000 nM. Next, `Cc1c(-c2ccc(OC3CCN(C(=O)OC(C)(C)C)CC3)cc2)ccc2nccn12` [Example 605, tert-Butyl 4-[4-(5-methylimidazo[1,2-a]pyridin-6-yl)phenoxy]piperidine-1-carboxylate]: 1000 to 10000 nM; `Cc1c(-c2ccc(OC3CCN(C(=O)NCC(F)(F)F)CC3)cc2)ccc2nccn12` [Example 606, 4-[4-(5-Methylimidazo[1,2-a]pyridin-6-yl)phenoxy]-N-(2,2,2-trifluoro-ethyl)piperidine-1-carboxamide]: 1000 to 10000 nM. In the case of `CCCONC(=O)N1CCC(Oc2ccc(-c3ccc4nccn4c3C)cc2)CC1` [Example 607, 4-[4-(5-Methylimidazo[1,2-a]pyridin-6-yl)phenoxy]-N-propoxy-piperidine-1-carboxamide] it was 1000 to 10000 nM; in that of `CCONC(=O)N1CCC(Oc2ccc(-c3ccc4nccn4c3C)cc2)CC1` [Example 608, N-Ethoxy-4-[4-(5-methylimidazo[1,2-a]pyridin-6-yl)phenoxy]piperidine-1-carboxamide], 100 to 999 nM; in that of `Cc1c(-c2ccc(OC3CCN(C(=O)CN)CC3)cc2)ccc2cccnc12` [Example 609, 2-Amino-1-[4-[4-(8-methyl-7-quinolyl)phenoxy]-1-piperidyl]ethanone, 2HCl], 1 to 99 nM. As for `Cc1c(-c2ccc(OC3CCN(C(=O)[C@@H](C)N)CC3)cc2)ccc2cccnc12` [Example 610, (2R)-2-Amino-1-[4-[4-(8-methyl-7-quinolyl)phenoxy]-1-piperidyl]propan-1-one, 2HCl], the concentration for half-maximal inhibition (IC50) fell in the range of 1000 to 10000 nM.

As to `CONC(=O)N1CCC(Oc2ccc(-c3ccc4nccn4c3C)cc2)CC1` [Example 611, N-Methoxy-4-[4-(5-methylimidazo[1,2-a]pyridin-6-yl)phenoxy]piperidine-1-carboxamide], the IC50 fell in the range of 1000 to 10000 nM. In the case of `Cc1c(-c2ccc(OC3CCN(C(=O)[C@H](C)N)CC3)cc2)ccc2cccnc12` [Example 612, (2S)-2-Amino-1-[4-[4-(8-methyl-7-quinolyl)phenoxy]-1-piperidyl]propan-1-one 2HCl], the IC50 was 1 to 99 nM.

Usually IC50 stands for the concentration needed to halve the response being measured.

The values above are taken from US9902696B2, “1,4-substituted piperidine derivatives” (Cephalon, Inc., priority 2015, dated 2018).
